# Results published in patent US20260272936A1, “TREATMENT OF CANCER WITH A PARG INHIBITOR” (858 Therapeutics, Inc., priority 2023, published 2026).
# What was measured:
# [1] = biological target: T1, 5-HT2A receptor (Homo sapiens, UniProt P28223); assay: Eurofins selectivity panel, radioligand competition binding at 10 μM
# T1 construct: Eurofins (contract study)
# Experimental: (§1) The inhibitory potential of Compound 1 was tested against 38 diverse non-kinase enzymes and 55 receptors, ion channels and neurotransmitter transporters in radioligand competition binding assays using mostly human recombinant proteins. […] Compound 1 was also tested against an additional panel of 468 protein kinases. Studies were performed at Eurofins (Luxembourg City, Luxembourg) using their published assay formats.
# [2] = biological target: T2, human A1 receptor (Homo sapiens, UniProt P30542); assay: as above
# T2 construct: Eurofins (contract study)
# Experimental: as §1
# [3] = test system: HCC1428 breast cancer xenograft; assay: HCC1428 breast cancer CDX model, tumor volume and body weight; type: in vivo, BALB/c nude mice; settings: for % TGI: 25 days
# Experimental: Two separate studies were performed. […] Groups of 8 animals each were established by random assignment. Tumor volumes and body weights were measured twice weekly. The tumor volume (TV) in mm^3 was estimated using the formula: TV=a×b^2/2, where a and b are the long and short diameters of a tumor, respectively. For each treatment group, if the mean TV at the end of study was greater than the mean tumor volume at treatment initiation, then tumor growth inhibition (TGI) was calculated using the formula: % TGI=[1-(Mean TreatedTVFinal−Mean Treated TVInitial)/(Mean Vehicle TVFinal−Mean VehicleTVInitial)]×100. If the mean TV of the treatment group at the end of study was less than the mean tumor volume at treatment initiation, then tumor regression (REG) was calculated using the formula: % REG=[(Mean Treated TVInitial−Mean Treated TVFinal)/Mean TreatedTVInitial]×100. Statistical analysis of end-of-study tumor volumes was performed using two-way repeated measures ANOVA followed by post hoc comparisons of the mean.
# The PARP inhibitor niraparib was included as a comparator and dosed orally QD at a dose of 45 mg/kg.
# The mice in the 50 mg/kg BID group were dosed every day whereas the mice in the […] were dosed for the first 5 days of each 7-day cycle, such that the total weekly dose was the same between these two groups. At the end of the study, tumor tissue was collected for the vehicle, 50 mg/kg BID, and 30, 50 and 100 mg/kg QD dose groups and formalin-fixed and paraffin embedded (FFPE) for γH2AX immunohistochemistry. γH2AX expression in FFPE tumor tissue was evaluated by staining and was performed using immunohistochemistry and validated antibody conditions at Histowiz (Long Island City, NY, USA). The γH2AX IHC images were then quantified in-house using QuPath software. The total number of nuclei objects per tumor section based on hematoxylin counter-staining (blue) were segmented using a Stardist algorithm and the number of γH2AX positive DAB (3,3′ Diaminobenzidine) stained cells (brown) quantified using object classification with a pre-trained random forest model based on DAB staining parameters including intensity and standard deviation.
# [4] = test system: HCC1428 breast cancer xenograft; settings: monotherapy or in combinations
# Experimental: The CDX model was established by subcutaneous inoculation of HCC1428 cells into the right flank of BALB/c nude mice. Mice were injected subcutaneously with estradiol benzoate one day prior to cell inoculation and then twice per week thereafter to promote optimal growth of the ER^+ cell line. Groups of 9 animals each were established by random assignment. Tumor volumes and body weights were measured twice weekly. Tumor volume and percent tumor growth inhibition (TGI) or percent tumor regression (REG) were calculated as described in Example 4A. End-of-study Day […] TGI or REG was calculated relative to the Day 25 mean TV from the vehicle group. Statistical analysis of the Day 25 tumor volumes was performed using the Brown-Forsythe and Welch ANOVA test.
# Compound treatment was initiated when the mean tumor volume of each group was 184 mm^3. Compound 1 was administered to mice orally for 25 days once daily (QD) at a dose of 100 mg/kg based on body weight. Abemaciclib was administered orally at a dose of 30 mg/kg QD for 25 days based on body weight and fulvestrant was administered subcutaneously at a dose of 5 mg/mouse once per week (QW). Following the dosing period of 25 days, an observation period was conducted for Group 5 (Compound 1+abemaciclib), Group 7 (abemaciclib+fulvestrant), and Group 8 (Compound 1+abemaciclib+fulvestrant) with continued twice weekly measurement of tumor volume and body weight measurements but no additional administration of compound.
# T2 sequence (P30542 whole entry): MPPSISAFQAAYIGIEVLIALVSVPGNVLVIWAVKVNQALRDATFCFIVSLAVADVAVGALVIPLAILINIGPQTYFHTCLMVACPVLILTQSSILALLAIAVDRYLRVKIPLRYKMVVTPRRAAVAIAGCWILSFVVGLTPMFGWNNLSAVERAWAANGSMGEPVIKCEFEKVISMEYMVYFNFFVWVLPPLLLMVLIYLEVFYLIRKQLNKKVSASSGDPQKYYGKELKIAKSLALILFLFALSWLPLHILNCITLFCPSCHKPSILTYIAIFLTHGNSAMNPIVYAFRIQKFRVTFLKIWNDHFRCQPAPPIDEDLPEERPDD
# T1 sequence (P28223 whole entry): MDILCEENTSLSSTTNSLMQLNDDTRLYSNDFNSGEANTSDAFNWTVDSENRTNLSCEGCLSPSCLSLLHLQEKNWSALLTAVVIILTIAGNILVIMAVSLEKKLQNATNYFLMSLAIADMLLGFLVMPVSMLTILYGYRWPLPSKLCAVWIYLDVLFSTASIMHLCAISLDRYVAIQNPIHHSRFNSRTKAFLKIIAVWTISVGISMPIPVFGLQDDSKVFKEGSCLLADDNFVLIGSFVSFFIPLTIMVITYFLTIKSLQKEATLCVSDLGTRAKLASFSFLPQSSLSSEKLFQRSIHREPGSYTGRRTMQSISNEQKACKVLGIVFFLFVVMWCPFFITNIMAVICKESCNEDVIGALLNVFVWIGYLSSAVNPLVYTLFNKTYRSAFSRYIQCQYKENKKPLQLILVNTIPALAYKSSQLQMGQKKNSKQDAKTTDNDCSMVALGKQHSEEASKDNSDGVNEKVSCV
compound,measurement,setting,value
"[2H]C([2H])(c1cnn(C)c1)N1C(=O)c2cc(S(=O)(=O)NC3(C)CC3)ccc2N2C1=NC[C@H]2C [Compound 1, (R)-1-methyl-4-((1-methyl-1H-pyrazol-4-yl)methyl-d2)-N-(1-methylcyclopropyl)-5-oxo-1,2,4,5-tetrahydroimidazo[1,2-a]quinazoline-7-sulfonamide]",inhibition at 10 µM,[1],64%
same,inhibition at 10 µM,[2],67%
same,mean body loss over the treatment period,"[3]; Study 1, 75 mg/kg BID",< 4%
same,mean body weight change over the treatment period,"[3]; Study 1, 100 mg/kg QD",mean body weight increase
same,% TGI,"[3]; Study 2, 10 mg/kg QD oral",26% TGI
same,% TGI,"[3]; Study 2, 30 mg/kg QD oral",35% TGI
same,mean body weight loss during the treatment period,"[3]; Study 2, all dose groups",≤ 2%
same,tolerability,[4],well tolerated
